Reference: ChEMBL document CHEMBL3784979, “Design, synthesis and biological evaluation of novel benzimidazole-2-substituted phenyl or pyridine propyl ketene derivatives as antitumour agents” (Eur J Med Chem, 2016)
Activity calls are given as the source filed them. The calls are words filed in the database; no cut-off is given here.

What was measured:
[1] = Cell cycle arrest in human HCT116 cells assessed as accumulation at S phase after 72 hrs by propidium iodide staining based flow cytometry (reference value: 40.55 +/- 1.36%); format: functional; settings: HCT-116
[2] = Cell cycle arrest in human HCT116 cells assessed as accumulation at G2 phase after 72 hrs by propidium iodide staining based flow cytometry (reference value: 27.73 +/- 3.56%); format: functional; settings: HCT-116
[3] = Cell cycle arrest in human HCT116 cells assessed as accumulation at G1 phase after 72 hrs by propidium iodide staining based flow cytometry (reference value: 31.72 +/- 2.21%); format: functional; settings: HCT-116
HepG2 = experiment: Antiproliferative activity against human HepG2 cells after 48 hrs by MTT assay; format: functional, cell-based; settings: HepG2, 48 h
[4] = Antiproliferative activity against human HCT116 cells after 48 hrs by MTT assay; format: functional, cell-based; settings: HCT-116, 48 h
MCF7 = experiment: Antiproliferative activity against human MCF7 cells after 48 hrs by MTT assay; format: functional, cell-based; settings: MCF7, 48 h
[5] = Cell cycle arrest in human HCT116 cells assessed as accumulation at G1 phase at 0.58 uM after 72 hrs by propidium iodide staining based flow cytometry (reference value: 31.72 +/- 2.21%); format: functional; settings: HCT-116
[6] = biological target: T1, Tumour suppressor p53/oncoprotein Mdm2 (Homo sapiens) (UniProt P04637+Q00987); experiment: Inhibition of MDM2/P53 protein interaction in human HCT116 cells at 0.5 to 5 uM after 24 hrs by immunoprecipitation analysis; format: cell-based; settings: HCT-116
T1 sequence (P04637 whole entry, looked up): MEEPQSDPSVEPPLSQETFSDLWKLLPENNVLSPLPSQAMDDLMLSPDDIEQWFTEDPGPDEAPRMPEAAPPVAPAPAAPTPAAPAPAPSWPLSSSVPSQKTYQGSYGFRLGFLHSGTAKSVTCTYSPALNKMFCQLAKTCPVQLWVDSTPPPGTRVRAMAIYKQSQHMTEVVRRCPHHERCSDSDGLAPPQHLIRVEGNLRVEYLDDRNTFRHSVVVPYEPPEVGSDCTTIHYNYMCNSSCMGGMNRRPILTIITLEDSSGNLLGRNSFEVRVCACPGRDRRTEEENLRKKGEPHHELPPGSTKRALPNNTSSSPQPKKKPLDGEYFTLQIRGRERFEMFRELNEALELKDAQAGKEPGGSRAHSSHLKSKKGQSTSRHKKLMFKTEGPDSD
T1 sequence (Q00987 whole entry, looked up): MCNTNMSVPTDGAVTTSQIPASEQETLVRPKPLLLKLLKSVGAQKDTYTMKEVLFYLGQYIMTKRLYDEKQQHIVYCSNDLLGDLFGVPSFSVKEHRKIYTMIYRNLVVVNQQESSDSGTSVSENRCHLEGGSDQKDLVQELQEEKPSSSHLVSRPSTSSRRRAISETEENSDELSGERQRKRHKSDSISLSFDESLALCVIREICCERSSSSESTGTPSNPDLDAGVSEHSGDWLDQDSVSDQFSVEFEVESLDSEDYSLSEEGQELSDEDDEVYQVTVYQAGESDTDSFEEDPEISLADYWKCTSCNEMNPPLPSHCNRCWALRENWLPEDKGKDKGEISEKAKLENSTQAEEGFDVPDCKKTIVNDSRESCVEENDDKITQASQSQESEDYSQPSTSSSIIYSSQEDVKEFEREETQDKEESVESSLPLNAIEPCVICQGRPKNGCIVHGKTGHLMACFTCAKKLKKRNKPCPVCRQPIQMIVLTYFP

HCT-116 [7] = experiment: Antitumor activity against human HCT116 cells xenografted in ip dosed BALB/c mouse assessed as tumor growth inhibition administered twice weekly for 4 weeks measured 24 hrs post last dose; format: functional, organism-based
[8] = Cell cycle arrest in human HCT116 cells assessed as accumulation at G2 phase at 0.58 uM after 72 hrs by propidium iodide staining based flow cytometry (reference value: 27.73 +/- 3.56%); format: functional; settings: HCT-116
[9] = Cell cycle arrest in human HCT116 cells assessed as accumulation at S phase at 0.58 uM after 72 hrs by propidium iodide staining based flow cytometry (reference value: 40.55 +/- 1.36%); format: functional; settings: HCT-116
[10] = Toxicity in ip dosed BALB/c mouse by bliss test; format: organism-based; settings: in vivo
[11] = Antiproliferative activity against p53 deficient human HCT116 cells after 48 hrs by MTT assay; format: functional, cell-based; settings: HCT-116, 48 h
Mus musculus [12] = experiment: Toxicity in BALB/c mouse assessed as change in body weight at 100 to 200 mg/kg, ip twice weekly for 4 weeks measured 24 hrs post last dose; format: organism-based; settings: in vivo
[13] = Cell cycle arrest in human HCT116 cells assessed as accumulation at G2 phase at 0.04 uM after 72 hrs by propidium iodide staining based flow cytometry (reference value: 27.73 +/- 3.56%); format: functional; settings: HCT-116
HCT-116 [14] = experiment: Potency index, ratio of 5-fluorouracil IC50 to compound IC50 for human HCT116 cells; format: functional
[15] = biological target: T1, Tumour suppressor p53/oncoprotein Mdm2 (Homo sapiens); experiment: Inhibition of MDM2/P53 protein interaction in human HCT116 cells at 0.1 to 1 uM after 24 hrs by immunoprecipitation analysis; format: cell-based; settings: HCT-116
[16] = Cell cycle arrest in human HCT116 cells assessed as accumulation at G1 phase at 0.04 uM after 72 hrs by propidium iodide staining based flow cytometry (reference value: 31.72 +/- 2.21%); format: functional; settings: HCT-116
[17] = Cell cycle arrest in human HCT116 cells assessed as accumulation at S phase at 0.04 uM after 72 hrs by propidium iodide staining based flow cytometry (reference value: 40.55 +/- 1.36%); format: functional; settings: HCT-116
[18] = Antitumor activity against human HCT116 cells xenografted in BALB/c mouse assessed as tumor growth inhibition at 200 mg/kg, ip twice weekly for 4 weeks measured 24 hrs post last dose relative to control; format: functional; settings: HCT-116, ip, read-out: TGI
[19] = Antitumor activity against human HCT116 cells xenografted in BALB/c mouse assessed as tumor growth inhibition at 12.5 mg/kg, ip twice weekly for 4 weeks measured 24 hrs post last dose relative to control; format: functional; settings: HCT-116, ip, read-out: TGI
Mus musculus [20] = experiment: Toxicity in BALB/c mouse assessed as reduction in body weight at 12.5 mg/kg, ip twice weekly for 4 weeks measured 24 hrs post last dose; format: organism-based; settings: in vivo
[21] = Cell cycle arrest in human HCT116 cells assessed as accumulation at G1 phase at 0.06 uM after 72 hrs by propidium iodide staining based flow cytometry (reference value: 31.72 +/- 2.21%); format: functional; settings: HCT-116
[22] = Cell cycle arrest in human HCT116 cells assessed as accumulation at S phase at 0.06 uM after 72 hrs by propidium iodide staining based flow cytometry (reference value: 40.55 +/- 1.36%); format: functional; settings: HCT-116
[23] = Cell cycle arrest in human HCT116 cells assessed as accumulation at G2 phase at 0.06 uM after 72 hrs by propidium iodide staining based flow cytometry (reference value: 27.73 +/- 3.56%); format: functional; settings: HCT-116

COc1ccc(C2=N[C@H](c3ccc(Cl)cc3)[C@H](c3ccc(Cl)cc3)N2C(=O)N2CCNC(=O)C2)c(OC(C)C)c1
Activity [1]: 24.8% | Activity [2]: 12.7% | Activity [3]: 62.5%

O=c1[nH]cc(F)c(=O)[nH]1 [FLUOROURACIL]
IC50 (HepG2): 174 µM | IC50 [4]: 57 µM | IC50 (MCF7): 223 µM

CC(=O)O[C@H]1C(=O)[C@@]2(C)[C@H]([C@H](OC(=O)c3ccccc3)[C@]3(O)C[C@H](OC(=O)[C@H](O)[C@@H](NC(=O)c4ccccc4)c4ccccc4)C(C)=C1C3(C)C)[C@]1(OC(C)=O)CO[C@@H]1C[C@@H]2O [PACLITAXEL]
IC50 (HepG2): 0.0217 µM | IC50 [4]: 0.0673 µM

COc1cccc(/C=C/C(=O)c2nc3ccccc3[nH]2)c1
Activity [5]: 60.5% | inhibition [6]: Active | IC50 (HepG2): 5.68 µM | TGI (HCT-116 [7]): Dose-dependent effect | Activity [8]: 20.5% | IC50 [4]: 0.58 µM | Activity [9]: 19% | IC50 (MCF7): 21.7 µM | LD50 [10]: 1220 mg/kg | IC50 [11]: 4.75 µM | Activity (Mus musculus [12]): Non-toxic

O=C(/C=C/c1ccccn1)c1nc2ccccc2o1
IC50 (HepG2): > 100 µM | IC50 [4]: > 100 µM | IC50 (MCF7): > 100 µM

O=C(/C=C/c1ccncc1)c1nc2ccccc2[nH]1
IC50 (HepG2): 6.94 µM | IC50 [4]: 0.71 µM | IC50 (MCF7): 20.9 µM | IC50 [11]: 5.61 µM

O=C(/C=C/c1ccc(Cl)cc1)c1nc2ccccc2[nH]1
IC50 (HepG2): 12.5 µM | IC50 [4]: 6.79 µM | IC50 (MCF7): 24.8 µM

O=C(/C=C/c1cccnc1)c1nc2ccccc2[nH]1
IC50 (HepG2): 8.48 µM | IC50 [4]: 15.3 µM | IC50 (MCF7): 21.7 µM

OC(/C=C/c1ccccn1)c1nc2ccccc2[nH]1 (stereo not drawn)
IC50 (HepG2): > 50 µM | IC50 [4]: > 100 µM | IC50 (MCF7): > 100 µM

O=C(/C=C/c1ccccn1)c1nc2ccccc2s1
IC50 (HepG2): > 100 µM | IC50 [4]: > 100 µM | IC50 (MCF7): > 100 µM

O=C(/C=C/c1cccc(Cl)c1)c1nc2ccccc2[nH]1
Activity [13]: 17.8% | IC50 (HepG2): 0.75 µM | TGI (HCT-116 [7]): Dose-dependent effect | Ratio IC50 (HCT-116 [14]): 950 | inhibition [15]: Active | IC50 [4]: 0.03 µM | Activity [16]: 65% | IC50 (MCF7): 9.8 µM | LD50 [10]: 692 mg/kg | IC50 [11]: 1.95 µM | Activity [17]: 17.2% | Activity (Mus musculus [12]): Non-toxic | inhibition in vivo at 200 mg/kg [18]: 74.6%

COc1cccc(/C=C/C(=O)c2nc3ccccc3s2)c1
IC50 (HepG2): > 100 µM | IC50 [4]: > 100 µM | IC50 (MCF7): > 100 µM

O=C(/C=C/c1cccc(Cl)c1)c1nc2ccccc2s1
IC50 (HepG2): > 100 µM | IC50 [4]: > 100 µM | IC50 (MCF7): > 100 µM

O=C(CCc1cccc(Cl)c1)c1nc2ccccc2[nH]1
IC50 (HepG2): > 100 µM | IC50 [4]: > 100 µM | IC50 (MCF7): > 100 µM

O=C(/C=C/c1cccc(Cl)c1)c1nc2ccccc2o1
IC50 (HepG2): > 100 µM | IC50 [4]: > 100 µM | IC50 (MCF7): > 100 µM

O=C(/C=C/c1ccc(Br)cc1)c1nc2ccccc2[nH]1
IC50 (HepG2): 10.9 µM | IC50 [4]: 19.6 µM | IC50 (MCF7): 52.7 µM

COc1ccccc1/C=C/C(=O)c1nc2ccccc2[nH]1
IC50 (HepG2): 7.99 µM | IC50 [4]: 4.79 µM | IC50 (MCF7): 41.3 µM

CCc1c2c(nc3ccc(OC(=O)N4CCC(N5CCCCC5)CC4)cc13)-c1cc3c(c(=O)n1C2)COC(=O)[C@]3(O)CC [IRINOTECAN]
inhibition in vivo at 12.5 mg/kg [19]: 70.2% | Activity (Mus musculus [20]): 3.66 g

O=C(/C=C/c1ccccn1)c1nc2ccccc2[nH]1
IC50 (HepG2): 0.34 µM | TGI (HCT-116 [7]): Dose-dependent effect | Ratio IC50 (HCT-116 [14]): 950 | inhibition [15]: Active | IC50 [4]: 0.06 µM | IC50 (MCF7): 3.64 µM | LD50 [10]: 634 mg/kg | Activity [21]: 64.5% | IC50 [11]: 1.45 µM | Activity [22]: 18.9% | Activity [23]: 16.6% | Activity (Mus musculus [12]): Non-toxic

OC(/C=C/c1cccc(Cl)c1)c1nc2ccccc2[nH]1 (stereo not drawn)
IC50 (HepG2): > 100 µM | IC50 [4]: > 100 µM | IC50 (MCF7): > 100 µM

Cc1ccccc1/C=C/C(=O)c1nc2ccccc2[nH]1
IC50 (HepG2): 6.71 µM | IC50 [4]: 0.86 µM | IC50 (MCF7): 62.5 µM | IC50 [11]: 4.39 µM

O=C(CCc1ccccn1)c1nc2ccccc2[nH]1
IC50 (HepG2): > 100 µM | IC50 [4]: > 100 µM | IC50 (MCF7): > 100 µM

COc1cccc(/C=C/C(O)c2nc3ccccc3[nH]2)c1 (stereo not drawn)
IC50 (HepG2): > 100 µM | IC50 [4]: > 100 µM | IC50 (MCF7): > 100 µM

O=C(/C=C/c1ccccc1)c1nc2ccccc2[nH]1
IC50 (HepG2): 6.3 µM | IC50 [4]: 0.2 µM | IC50 (MCF7): 39.8 µM | IC50 [11]: 2.07 µM

O=C(/C=C/c1ccccc1Br)c1nc2ccccc2[nH]1
IC50 (HepG2): 29.2 µM | IC50 [4]: 16.4 µM | IC50 (MCF7): 50.9 µM

O=C(/C=C/c1cccc(Br)c1)c1nc2ccccc2[nH]1
IC50 (HepG2): 1.59 µM | IC50 [4]: 0.79 µM | IC50 (MCF7): 19.3 µM | IC50 [11]: 2.94 µM

COc1cccc(/C=C/C(=O)c2nc3ccccc3o2)c1
IC50 (HepG2): > 100 µM | IC50 [4]: > 100 µM | IC50 (MCF7): > 100 µM

COc1ccc(/C=C/C(=O)c2nc3ccccc3[nH]2)cc1
IC50 (HepG2): 7.41 µM | IC50 [4]: 13.1 µM | IC50 (MCF7): > 100 µM
